This note sets out measurements from ChEMBL document CHEMBL3217416, “[4-(6,7-Disubstituted quinazolin-4-ylamino)phenyl] carbamic acid esters: a novel series of dual EGFR/VEGFR-2 tyrosine kinase inhibitors” (Medchemcomm, 2011).

The structures appear in SMILES notation.

In experiment [1] the test system is PC-3. The experiment in a line: Antiproliferative activity against human PC3 cells by MTS assay. Format: functional. (In general: Tetrazolium assays rely on reduction of a dye to a coloured formazan, in cell work by metabolically active cells.)
The test system of experiment [2] is HT-29. The experiment is described as follows: Antiproliferative activity against human HT-29 cells by MTS assay. Format: functional.
Experiment [3] has as its system MCF7. The experiment is described as follows: Antiproliferative activity against human MCF7 cells by MTS assay. The class given is functional.
Experiment [4] addresses Epidermal growth factor receptor (Homo sapiens, UniProt P00533). The experiment in a line: Inhibition of EGFR (unknown origin).
A short description of experiment [5]: Antiproliferative activity against human EAhy926 cells by MTS assay. Format: functional, cell-based. The note with it: EA.hy 926.
In experiment [6] the test system is PC-3. The experiment in a line: Antiproliferative activity against human PC3 cells at 10 uM by MTS assay. Format: functional, cell-based.
For experiment [7], the target named is Vascular endothelial growth factor receptor 2 (Homo sapiens, UniProt P35968). The experiment in a line: Inhibition of VEGFR2 (unknown origin).
Experiment [8] has as its system HT-29. The experiment is described as follows: Antiproliferative activity against human HT-29 cells at 10 uM by MTS assay. Format: functional, cell-based.
The test system of experiment [9] is MCF7. The experiment in a line: Antiproliferative activity against human MCF7 cells […] by MTS assay. The class given is functional, cell-based.

Sequence of Epidermal growth factor receptor (P00533 whole entry): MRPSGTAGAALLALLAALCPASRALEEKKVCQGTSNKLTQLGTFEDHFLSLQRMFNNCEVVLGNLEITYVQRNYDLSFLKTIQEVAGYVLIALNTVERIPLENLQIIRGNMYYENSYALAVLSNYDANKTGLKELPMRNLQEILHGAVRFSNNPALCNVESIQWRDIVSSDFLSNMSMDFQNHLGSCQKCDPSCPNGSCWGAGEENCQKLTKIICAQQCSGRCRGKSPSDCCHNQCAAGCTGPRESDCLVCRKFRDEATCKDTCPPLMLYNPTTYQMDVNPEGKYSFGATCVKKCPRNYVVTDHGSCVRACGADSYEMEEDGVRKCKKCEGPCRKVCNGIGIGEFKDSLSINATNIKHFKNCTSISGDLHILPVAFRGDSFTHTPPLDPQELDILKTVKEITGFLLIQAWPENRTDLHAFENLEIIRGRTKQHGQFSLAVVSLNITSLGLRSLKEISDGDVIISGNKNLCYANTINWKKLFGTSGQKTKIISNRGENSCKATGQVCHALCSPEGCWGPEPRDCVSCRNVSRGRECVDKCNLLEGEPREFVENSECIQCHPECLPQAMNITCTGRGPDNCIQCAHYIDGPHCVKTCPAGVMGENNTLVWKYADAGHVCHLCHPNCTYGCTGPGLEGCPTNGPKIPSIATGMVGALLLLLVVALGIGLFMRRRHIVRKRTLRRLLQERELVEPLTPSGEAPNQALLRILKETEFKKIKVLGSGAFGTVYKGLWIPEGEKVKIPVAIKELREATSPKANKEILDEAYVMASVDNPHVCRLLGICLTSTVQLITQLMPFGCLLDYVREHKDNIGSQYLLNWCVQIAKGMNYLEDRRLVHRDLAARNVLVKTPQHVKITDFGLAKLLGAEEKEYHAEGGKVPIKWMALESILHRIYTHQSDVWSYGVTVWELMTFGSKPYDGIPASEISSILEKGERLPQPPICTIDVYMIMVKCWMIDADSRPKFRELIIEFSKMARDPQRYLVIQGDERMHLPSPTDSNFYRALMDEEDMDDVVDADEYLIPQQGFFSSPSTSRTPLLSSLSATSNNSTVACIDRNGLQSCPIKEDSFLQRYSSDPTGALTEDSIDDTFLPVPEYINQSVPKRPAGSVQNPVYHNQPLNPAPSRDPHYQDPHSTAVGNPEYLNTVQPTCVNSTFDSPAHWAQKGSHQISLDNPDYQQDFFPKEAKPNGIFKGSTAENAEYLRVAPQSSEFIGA
Sequence of Vascular endothelial growth factor receptor 2 (P35968 whole entry): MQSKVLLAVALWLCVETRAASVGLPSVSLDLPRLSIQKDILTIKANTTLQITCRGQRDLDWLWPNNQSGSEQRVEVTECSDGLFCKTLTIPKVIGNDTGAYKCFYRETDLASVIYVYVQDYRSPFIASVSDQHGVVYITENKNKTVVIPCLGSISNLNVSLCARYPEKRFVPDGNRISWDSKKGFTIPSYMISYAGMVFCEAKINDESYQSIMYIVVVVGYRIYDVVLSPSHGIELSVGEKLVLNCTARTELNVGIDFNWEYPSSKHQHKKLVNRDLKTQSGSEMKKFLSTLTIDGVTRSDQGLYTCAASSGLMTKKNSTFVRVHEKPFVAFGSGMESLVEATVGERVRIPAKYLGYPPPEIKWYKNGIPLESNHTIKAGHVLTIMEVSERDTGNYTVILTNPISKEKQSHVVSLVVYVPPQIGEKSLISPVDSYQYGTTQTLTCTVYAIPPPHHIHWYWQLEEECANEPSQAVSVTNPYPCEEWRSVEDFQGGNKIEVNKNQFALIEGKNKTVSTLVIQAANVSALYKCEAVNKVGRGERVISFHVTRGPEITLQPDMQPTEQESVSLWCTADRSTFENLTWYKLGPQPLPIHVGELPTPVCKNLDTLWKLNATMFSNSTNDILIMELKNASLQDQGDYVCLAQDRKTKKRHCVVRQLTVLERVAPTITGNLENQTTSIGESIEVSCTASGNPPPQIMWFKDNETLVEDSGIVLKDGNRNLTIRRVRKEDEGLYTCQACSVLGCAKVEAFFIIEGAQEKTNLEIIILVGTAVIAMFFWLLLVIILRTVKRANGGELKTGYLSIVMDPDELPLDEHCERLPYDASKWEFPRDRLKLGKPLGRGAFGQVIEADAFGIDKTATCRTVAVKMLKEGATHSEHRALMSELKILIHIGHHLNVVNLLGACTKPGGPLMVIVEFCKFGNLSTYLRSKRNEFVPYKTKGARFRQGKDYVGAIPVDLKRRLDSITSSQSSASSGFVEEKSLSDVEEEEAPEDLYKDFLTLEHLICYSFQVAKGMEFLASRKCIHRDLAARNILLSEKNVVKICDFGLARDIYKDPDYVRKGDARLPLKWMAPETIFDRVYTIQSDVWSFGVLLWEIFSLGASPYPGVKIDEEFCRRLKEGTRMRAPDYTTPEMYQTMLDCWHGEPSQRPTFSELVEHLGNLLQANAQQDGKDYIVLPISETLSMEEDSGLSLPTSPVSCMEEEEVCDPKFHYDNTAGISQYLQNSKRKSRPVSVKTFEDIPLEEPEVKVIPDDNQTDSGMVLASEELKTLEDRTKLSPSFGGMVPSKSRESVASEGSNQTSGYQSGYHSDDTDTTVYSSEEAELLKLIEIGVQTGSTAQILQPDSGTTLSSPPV

For the compound `COc1cc2ncnc(Nc3ccc(NC(C)=O)c(C)c3)c2cc1OC.Cl`, the “inhibition (INH)” value in the experiment on PC-3 [1], with HT-29 [2] and in the experiment on MCF7 [3] was 0% in each case. For the same compound, the IC50 in experiment [4] was more than 10 µM.
Consider `CCNC(=O)Nc1cc(Cl)c(Nc2ncnc3cc(OC)c(OC)cc23)cc1Cl.Cl`, for which the “inhibition (INH)” value in the experiment on PC-3 [1] came out at 11%; with HT-29 [2], 16%; in the experiment on MCF7 [3] it was 21%. The compound further had an IC50 in [4] of more than 10 µM.
As for `COc1cc2/c(=N/c3ccc(Br)cc3F)nc[nH]c2cc1OCC1CCN(C)CC1` [VANDETANIB], the “inhibition (INH)” value in the experiment with PC-3 [1] was determined as 33%; in the experiment with MCF7 [3], 26%.
In the case of `CCCCOc1cc2c(Nc3ccc(NC(=O)OCC)c(Cl)c3)ncnc2cc1OCCN(CC)CC`, the IC50 in experiment [5] is 2.8 µM; with PC-3 [6] it was more than 10 µM; in experiment [4] it was 9.8 µM; in [7] it was 4.8 µM.
For `CCOC(=O)Nc1cc(Nc2ncnc3cc(OC)c(OC)cc23)ccc1Cl`, inhibition in experiment [4] was half-maximal at 0.9 µM (IC50). This counts as sub-micromolar.
In the case of `CCCCOC(=O)Nc1ccc(Nc2ncnc3cc(OC)c(OC)cc23)cc1`, in experiment [4], inhibition was half-maximal at 0.8 µM (IC50).
Take `CCOC(=O)Nc1ccc(Nc2ncnc3cc(OCCN4CCOCC4)c(OC)cc23)cc1C`: the half-inhibitory concentration (IC50) in [5] was more than 10 µM; in the experiment on PC-3 [6] it was more than 10 µM; in the experiment on HT-29 [8], more than 10 µM; in the experiment on MCF7 [9], more than 10 µM; in experiment [4], 8 µM; in [7] it was 0.4 µM.
Take `CCCC(=O)Nc1ccc(Nc2ncnc3cc(OC)c(OC)cc23)cc1C`: the 50% inhibitory concentration (IC50) in experiment [4] was more than 10 µM; in [7], 4.3 µM.
`CCC(=O)Nc1ccc(Nc2ncnc3cc(OC)c(OC)cc23)cc1C.Cl`: the “inhibition (INH)” value in the experiment with PC-3 [1] is listed as 0%; in the experiment on HT-29 [2], 0%; in the experiment on MCF7 [3] it was 28%. This compound also showed a half-inhibitory concentration (IC50) in [4] of more than 10 µM.
Take `CCCCNC(=O)Nc1cc(Cl)c(Nc2ncnc3cc(OC)c(OC)cc23)cc1Cl.Cl`: the “inhibition (INH)” value with PC-3 [1] is reported as 0%; in the experiment on HT-29 [2], 3%; in the experiment on MCF7 [3], 0%. In experiment [4], this compound yielded a 50% inhibitory concentration (IC50) of more than 10 µM.
`CCOC(=O)Nc1ccc(Nc2ncnc3cc(OCCN4CCOCC4)c(OC)cc23)cc1Cl`: the 50% inhibitory concentration (IC50) is more than 10 µM in [5]; more than 10 µM in the experiment on PC-3 [6]; more than 10 µM in the experiment on HT-29 [8]; more than 10 µM in the experiment on MCF7 [9]; 8.5 µM in experiment [4]; 0.3 µM in experiment [7].
For `CCOC(=O)Nc1ccc(Nc2ncnc3cc(OC)c(OCCN(CC)CC)cc23)cc1C`, the IC50 is more than 10 µM in experiment [5]; more than 10 µM in the experiment on PC-3 [6]; more than 10 µM with HT-29 [8]; more than 10 µM in the experiment on MCF7 [9]; more than 10 µM in experiment [4]; 7.2 µM in experiment [7].
In the case of `CCCCOC(=O)Nc1ccc(Nc2ncnc3cc(OC)c(OC)cc23)cc1Cl`, in experiment [4], the half-maximal inhibitory concentration (IC50) was determined as 6.4 µM.
For the compound `CCOC(=O)Nc1ccc(Nc2ncnc3cc(OCCN(CC)CC)c(OC)cc23)cc1Cl`, the IC50 in experiment [5] was 6.2 µM; in the experiment on PC-3 [6], more than 10 µM; in the experiment with MCF7 [9], more than 10 µM; in experiment [4], more than 10 µM; in [7] it was 3.3 µM.
For the compound `CCOC(=O)Nc1ccc(Nc2ncnc3cc(OC)c(OC)cc23)cc1Cl`, half-maximal inhibition in experiment [4] (IC50) required 1 µM.
With `CCCCOc1cc2c(Nc3ccc(NC(=O)OCC)c(C)c3)ncnc2cc1OCCN(CC)CC`, the IC50 in experiment [5] is 8.1 µM; in the experiment with PC-3 [6], more than 10 µM; in the experiment on MCF7 [9] it was more than 10 µM; in [4] it was more than 10 µM; in experiment [7], 5.7 µM.
As to `CCOC(=O)Nc1ccc(Nc2ncnc3cc(OCCN4CCCCC4)c(OC)cc23)cc1C`, the IC50 in experiment [5] was 9.3 µM; in the experiment with PC-3 [6] it was more than 10 µM; in the experiment on HT-29 [8] it was 5.2 µM; in the experiment on MCF7 [9], more than 10 µM; in [4], more than 10 µM; in experiment [7] it was 0.9 µM.
In the case of `CCOC(=O)Nc1cc(Nc2ncnc3cc(OC)c(OC)cc23)ccc1C`, 5 µM corresponded to half-maximal inhibition in experiment [4] (IC50).
On to `CCOC(=O)Nc1cc(Cl)c(Nc2ncnc3cc(OC)c(OC)cc23)cc1Cl.Cl`, for which the “inhibition (INH)” value in the experiment with PC-3 [1] is 0%; in the experiment on HT-29 [2], 5%; in the experiment with MCF7 [3], 6%. The IC50 in experiment [4] is more than 10 µM.
With `CCCOC(=O)Nc1ccc(Nc2ncnc3cc(OC)c(OC)cc23)cc1`, the IC50 in experiment [4] turned out to be 7.05 µM.
On to `COC(=O)Nc1cc(Nc2ncnc3cc(OC)c(OC)cc23)ccc1Cl.Cl`, for which the results for the “inhibition (INH)” value in the experiment on PC-3 [1], in the experiment with HT-29 [2] and in the experiment with MCF7 [3] were 3%, 0% and 0%, respectively. In [4], this compound came in with an IC50 of more than 10 µM.
Compound `CCCOC(=O)Nc1ccc(Nc2ncnc3cc(OC)c(OC)cc23)cc1Cl` yielded an IC50 in [4] of 1 µM.
In turn, `CCCOc1cc2ncnc(Nc3ccc(NC(=O)OCC)c(C)c3)c2cc1OC` showed a half-inhibitory concentration (IC50) in experiment [4] of 3.9 µM. Compared with the last compound, the IC50 is about 3.9-fold higher.
In the case of `CCOC(=O)Nc1ccc(Nc2ncnc3cc(OCCN4CCCCC4)c(OC)cc23)cc1Cl`, the half-inhibitory concentration (IC50) in [5] is 9.3 µM; in the experiment on PC-3 [6], more than 10 µM; with HT-29 [8], 5.2 µM; in the experiment with MCF7 [9], 3 µM; in [4], more than 10 µM; in [7], 0.8 µM.
For the compound `COC(=O)Nc1ccc(Nc2ncnc3cc(OC)c(OC)cc23)cc1Cl`, the concentration for half-maximal inhibition (IC50) came to 6.15 µM in experiment [4] and 5.05 µM in experiment [7].
On to `CCOC(=O)Nc1ccc(Nc2ncnc3cc(OC)c(OC)cc23)cc1C`, for which it took 0.9 µM to reach half-maximal inhibition in experiment [4] (IC50). This counts as sub-micromolar.
Take `CCOC(=O)Nc1ccc(Nc2ncnc3cc(OCCN(CC)CC)c(OC)cc23)cc1C`: the IC50 in experiment [5] was more than 10 µM; in the experiment with PC-3 [6] it was more than 10 µM; in the experiment on HT-29 [8] it was more than 10 µM; with MCF7 [9], more than 10 µM; in experiment [4] it was more than 10 µM; in [7] it was 3.7 µM.
`CCCCOC(=O)Nc1ccc(Nc2ncnc3cc(OC)c(OC)cc23)cc1C`: the values for the half-maximal inhibitory concentration (IC50) in experiment [4] and in experiment [7] were 7.6 µM and 5.2 µM, respectively.
Consider `CCCCC(=O)Nc1ccc(Nc2ncnc3cc(OC)c(OC)cc23)cc1C`, for which the IC50 in [4] was more than 10 µM.
In turn, `CCCOc1cc2ncnc(Nc3ccc(NC(=O)OCC)c(Cl)c3)c2cc1OC` returned a concentration for half-maximal inhibition (IC50) in experiment [4] of 5.5 µM.
Still for that read-out and setting: in the case of `COC(=O)Nc1ccc(Nc2ncnc3cc(OC)c(OC)cc23)cc1C` it was 4 µM.

A word on the IC50: it is the concentration at which inhibition is half-maximal. Lower therefore signals greater potency.
